Reference: patent US12213482B2, “Fungicide enhancers effective for treating plants infected with fungal pathogens” (Board of Regents, The University of Texas System, priority 2015, dated 2025)

What was measured:
Assay in all cases: Antifungal susceptibility disk test, fungicide disk plus apyrase inhibitor in plate
Format in all cases: cell-based
Verticillium dahliae = conditions: inhibitor 65 μM, 30° C., 12 days; for inhibitory effect on the growth of V. dahliae compared to copper octanoate alone: combined with copper octanoate (285 mM) disk, FIG. 6A; for inhibitory effect on the growth of V. dahliae compared to propiconazole alone: combined with propiconazole (418 mM) disk, FIG. 6C
Experimental: (§1) Copper Octanoate, 6B. Propiconazole, and 6C. Myclobutanil against the pathogenic fungi Verticillium dahliae. […] The equivalent volume of dimethylsulphoxide (DMSO) was added as a control. The studies were repeated two times with similar results. Error bars indicate standard deviations (n=5). The significances of the potency of fungicides are indicated: *** (Student's t-test, P<0.00)); **(Student's t-test, P<0.01) or *(Student's t test, P<0.05). The plant pathogenic fungal strains Botrytis cinerea, Colletotrichum graminicola, Fusarium oxysporum, Sclerotiana sclerotiorum and Verticillium dahliae were obtained from the Institute for Plant Genomics & Biotechnology, Texas A & M University, USA Potato dextrose agar (PDA, Sigma-Aldrich) was routinely used for the growth of different pathogenic fungal strain. Ectophosphatase inhibitors NGXT191 (AI.1), AI.10, NGXT1913 (AI.13), and AI. 15 were used dal this study. The fungicides copper octanoate (C16H30CuO4), myclobutanil (C15H17ClN4) and propiconazole (C15H17Cl2N3O2) were used. The concentrations of these compounds used were copper octanoate (285 mM), myclobutanil (53.6 mM) and propiconazole (418 mM). Standard antifungal susceptibility disk tests were performed to determine any potentiating effect of ectophosphatase inhibitors on the growth of pathogenic fungus. The pathogenic fungus wild-type strains were plated on PDA medium with paper-disks containing, fungicides at the center of the plate. […] Plates were incubated at 30° C. for 7-days (C. graminicola and S. sclerotiorum) or 12-days (B. cinerea, F. oxysporum and V. dahliae), depending on the growth rate of the fungi. Plates were photographed, and the zone of fungal growth inhibition was measured by using IMAGE J™ software (NIH, USA). All the tests were performed with 5 replicates. The studies were performed two times. Results were analyzed for significance using Student T-tests.

Botrytis cinerea = conditions: inhibitor 65 μM, 30° C., 12 days; for inhibitory effect on the growth of B. cinerea compared to myclobutanil alone: combined with myclobutanil (53.6 mM) disk, FIG. 2B; for inhibitory effect on the growth of B. cinerea compared to propiconazole alone: combined with propiconazole (418 mM) disk, FIG. 2C
Experimental: as §1, with “2A. Copper” for “Copper”, “2B.” for “6B.”, “2C.” for “6C.”, “Botrytis cinerea.” for “Verticillium dahliae.”, “P<0.001); ** (Student's” for “P<0.00)); **(Student's”, “t-test,” for “t test,”

[1] = system: Colletotrichum graminicola; conditions: inhibitor 65 μM, 30° C., 7 days; for inhibitory effect on the growth of C. graminicola compared to copper octanoate alone: combined with copper octanoate (285 mM) disk, FIG. 3A; for inhibitory effect on the growth of C. graminicola compared to myclobutanil alone: combined with myclobutanil (53.6 mM) disk, FIG. 3B
Experimental: as §1, with “3B.” for “6B.”, “3C.” for “6C.”, “Colletotrichum graminicola.” for “Verticillium dahliae.”, “P<0.001;” for “P<0.00));”, “t-test,” for “t test,”

| SMILES | inhibitory effect on the growth of V. dahliae compared to copper octanoate alone (Verticillium dahliae) | inhibitory effect on the growth of B. cinerea compared to myclobutanil alone (Botrytis cinerea) | inhibitory effect on the growth of B. cinerea compared to propiconazole alone (Botrytis cinerea) | inhibitory effect on the growth of C. graminicola compared to copper octanoate alone [1] | inhibitory effect on the growth of C. graminicola compared to myclobutanil alone [1] | inhibitory effect on the growth of V. dahliae compared to propiconazole alone (Verticillium dahliae) | inhibitory effect on the growth of V. dahliae compared to myclobutanil alone (Verticillium dahliae; combined with myclobutanil (53.6 mM) disk, FIG. 6B) |
| --- | --- | --- | --- | --- | --- | --- | --- |
| Cc1cccc(NS(=O)(=O)c2ccc(-c3ccccc3)cc2)c1 [AI.1, N-(m-tolyl)-[1,1′-biphenyl]-4-sulfonamide] | significantly greater inhibitory effect | significantly greater inhibitory effect | greater inhibitory effect | significantly greater inhibitory effect | significantly greater inhibitory effect |  |  |
| O=C(Nc1cccc([N+](=O)[O-])c1)c1cccc(S(=O)(=O)Nc2ccc(Br)cc2)c1 [AI.13, 3-(N-(4-bromophenyl)sulfamoyl)-N-(3-nitrophenyl)benzamide] | significantly greater inhibitory effect | significantly greater inhibitory effect |  | significantly greater inhibitory effect | significantly greater inhibitory effect |  |  |
| CCCCCCCSC(=O)c1cc2ccccc2oc1=O [AI.10, S-heptyl 2-oxo-2H-chromene-3-carbothioate] | significantly greater inhibitory effect |  | greater inhibitory effect |  | significantly greater inhibitory effect | significantly greater inhibitory effect |  |
| C/C(=N\NC(=O)c1cccc(C)c1)c1ccc2ccccc2c1 [AI.15, (E)-3-methyl-N′-(1-(naphthalen-2-yl)ethylidene)benzohydrazide] | significantly greater inhibitory effect | significantly greater inhibitory effect | greater inhibitory effect |  | significantly greater inhibitory effect | significantly greater inhibitory effect | significantly greater inhibitory effect |
